Laboratory results taken from patent US11230541B2, “Heterocyclic compound” (Takeda Pharmaceutical Company Limited, priority 2017, dated 2022).

Biological target: T1, NMDA receptor composed of four subunits including 2 sets of heterodimers of NR1 and NR2B (Homo sapiens, UniProt Q13224)
T1 construct: host or cells: HEK293 (tetracycline-induced expression)
Assay: NR2B Ca2+ influx assay (FLIPR, Fluo-4) in HEK293 cells expressing human GRIN1 and GRIN2B
Format: cell-based
Details: glutamic acid/glycine-induced Ca2+ influx; for inhibition at 10 µM: HEK293, 10 μM final compound concentration, read-out: inhibitory rate (10 μM compound concentration)
Source text: To confirm the “antagonistic action on an NMDA receptor containing the NR2B subunit” of the compound of the present invention, human embryonic kidney cell expressing the “NMDA receptor composed of four subunits including 2 sets of heterodimers of NR1 and NR2B”, specifically HEK293 cell expressing human glutamate ionotropic receptor NMDA type subunit 1 (GRIN1) and human glutamate ionotropic receptor NMDA type subunit 2B (GRIN2B), was used and the activation suppressive effect on the receptors was measured.
As an index of the NMDA receptor activation, intracellular calcium ion (Ca^2+) influx caused by the binding of glycine and glutamic acid with NR1 and NR2B, respectively, was used. HEK293 cells were purchased from ChanTest. The cells were cultured in a DMEM/F-12 (COSMO BIO, 10-092-CM) medium added with 10% FBS′(fetal bovine serum, AusGene), 100 units/mL penicillin, 100 μg/mL streptomycin, 500 μg/mL neomycin, 100 μg/mL Zeocin, 5 μg/mL Blasticidin at 37° C., 5% CO2. The cells were detached from flask with trypsin the day before the assay, suspended in a seeding medium (DMEM (Invitrogen, 31053) added with 10% FBS, 100 units/mL penicillin, 100 μg/mL streptomycin) at 8×10^5 cells/mL, seeded by 25 μL per well in a 384-well plate (Falcon, 356663) at 20000 cells/well, and cultured overnight in an incubator. On the day of the assay, tetracycline (Wako Pure Chemical Industries, Ltd., 209-16561) was diluted with the seeding medium at 2 μg/mL, added at […] to the plate seeded with the cells, and cultured for 2 hr in an incubator. Thereafter, the medium was removed, and the cells were washed with 50 μL/well assay buffer (137 mM NaCl, 4 mM KCl, 1.8 mM CaCl2, 10 mM HEPES (pH 7.2), 10 mM Glucose, 0.1% BSA). Then, a loading buffer (assay buffer added with 2.5 uM Fluo-4AM, 2 mM Amaranth, 1 mM Tartrazine) was added at 25 μL/well, and loading was performed in the incubator for 30 min, and at room temperature for 15 min. A solution (25 μL) of the Example compound diluted with the above-mentioned assay buffer at 30 μM (final concentration 10 μM) was added, and the cells were stood for 15 min at room temperature. Using FLIPR (Molecular Devices), 25 μL of an assay buffer containing 30 μM glutamic acid, 30 μM glycine was added, and the fluorescence signal was measured every 3 seconds for 5 min. The inhibitory activity was calculated as a relative activity value (inhibitory rate) that inhibits 100% of the cumulative value of the fluorescence value of a well added with a buffer free of glutamic acid, glycine, relative to the cumulative value of the fluorescence value of each well.

T1 sequence (Q13224 27-1484, other chains not shown): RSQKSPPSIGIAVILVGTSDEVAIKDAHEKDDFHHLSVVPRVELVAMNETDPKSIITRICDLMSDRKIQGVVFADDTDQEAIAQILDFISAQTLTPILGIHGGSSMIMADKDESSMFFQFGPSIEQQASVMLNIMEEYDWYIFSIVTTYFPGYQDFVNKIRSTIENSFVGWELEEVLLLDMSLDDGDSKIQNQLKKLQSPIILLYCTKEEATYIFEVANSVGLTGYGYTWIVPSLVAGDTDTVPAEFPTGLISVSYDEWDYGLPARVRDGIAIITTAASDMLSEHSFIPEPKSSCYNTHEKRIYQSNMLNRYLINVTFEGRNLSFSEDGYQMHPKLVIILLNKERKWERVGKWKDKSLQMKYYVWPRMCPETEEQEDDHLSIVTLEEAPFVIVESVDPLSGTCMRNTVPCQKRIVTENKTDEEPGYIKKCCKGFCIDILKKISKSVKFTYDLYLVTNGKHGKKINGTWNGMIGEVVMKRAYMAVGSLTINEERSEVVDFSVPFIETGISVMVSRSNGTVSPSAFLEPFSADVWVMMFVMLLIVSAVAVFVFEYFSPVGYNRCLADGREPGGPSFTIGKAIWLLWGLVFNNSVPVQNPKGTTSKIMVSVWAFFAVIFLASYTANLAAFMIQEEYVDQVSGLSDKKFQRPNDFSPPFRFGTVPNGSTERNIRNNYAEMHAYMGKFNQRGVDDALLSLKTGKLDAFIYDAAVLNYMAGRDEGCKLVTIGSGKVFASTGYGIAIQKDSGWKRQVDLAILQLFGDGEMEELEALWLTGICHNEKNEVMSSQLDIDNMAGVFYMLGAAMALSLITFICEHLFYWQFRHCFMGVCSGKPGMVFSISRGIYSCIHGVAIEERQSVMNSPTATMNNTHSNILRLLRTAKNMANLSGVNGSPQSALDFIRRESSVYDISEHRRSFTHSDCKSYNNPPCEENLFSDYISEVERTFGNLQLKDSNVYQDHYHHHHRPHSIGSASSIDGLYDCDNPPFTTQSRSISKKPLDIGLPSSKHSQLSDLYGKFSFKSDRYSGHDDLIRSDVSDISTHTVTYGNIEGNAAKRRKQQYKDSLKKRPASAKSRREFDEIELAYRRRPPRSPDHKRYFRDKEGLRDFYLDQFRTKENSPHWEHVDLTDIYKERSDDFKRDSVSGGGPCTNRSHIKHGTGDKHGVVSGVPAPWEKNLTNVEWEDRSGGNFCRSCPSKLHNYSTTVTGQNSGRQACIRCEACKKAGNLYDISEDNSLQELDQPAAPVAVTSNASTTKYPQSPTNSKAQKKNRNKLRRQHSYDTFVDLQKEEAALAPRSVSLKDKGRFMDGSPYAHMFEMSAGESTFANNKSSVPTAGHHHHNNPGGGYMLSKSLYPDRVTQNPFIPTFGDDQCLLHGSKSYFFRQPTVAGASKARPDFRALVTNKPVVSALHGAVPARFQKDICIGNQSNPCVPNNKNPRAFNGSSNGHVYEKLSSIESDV

SMILES | inhibition at 10 µM | inhibitory rate (10 μM compound concentration) (10 μM final compound concentration)
COc1ccc2ncn(C)c2c1CNC(=O)c1ccc(F)c(Cl)c1 [Example 37, 3-chloro-4-fluoro-N-((6-methoxy-1-methyl-1H-benzimidazol-7-yl)methyl)benzamide] | 91% | 
COc1ccc2ncn(C)c2c1CNC(=O)c1ccc(C)c(Cl)c1 [Example 38, 3-chloro-N-((6-methoxy-1-methyl-1H-benzimidazol-7-yl)-methyl)-4-methylbenzamide] | 91% | 
COc1ccc2ncn(C)c2c1CNC(=O)c1ccc(Cl)c(C)c1 [Example 39, 4-chloro-N-((6-methoxy-1-methyl-1H-benzimidazol-7-yl)-methyl)-3-methyl-benzamide] | 91% | 
COc1ccc2ncn(C)c2c1CNC(=O)c1ccc(F)c(C(F)(F)F)c1 [Example 40, 4-fluoro-N-((6-methoxy-1-methyl-1H-benzimidazol-7-yl)methyl)-3-(trifluoro-methyl)benzamide] | 89% | 
COc1ccc2ncn(C)c2c1CNC(=O)c1cc(F)c(F)c(F)c1 [Example 41, 3,4,5-trifluoro-N-((6-methoxy-1-methyl-1H-benzimidazol-7-yl)methyl)benzamide] | 90% | 
COc1ccc2ncn(C)c2c1CNC(=O)c1cc(Cl)cs1 [Example 42, 4-chloro-N-((6-methoxy-1-methyl-1H-benzimidazol-7-yl)-methyl)thiophene-2-carboxamide] | 87% | 
COc1ccc2ncn(C)c2c1CNC(=O)c1cc(C)cs1 [Example 43, N-((6-methoxy-1-methyl-1H-benzimidazol-7-yl)-methyl)-4-methylthiophene-2-carboxamide] | 61% | 
COc1ccc2ncn(C)c2c1CNC(=O)c1ccc(Cl)c(F)c1 [Example 44, 4-chloro-3-fluoro-N-((6-methoxy-1-methyl-1H-benzimidazol-7-yl)methyl)benzamide] | 89% | 
COc1cc(C(=O)NCc2c(OC)ccc3ncn(C)c23)ccc1Cl [Example 45, 4-chloro-3-methoxy-N-((6-methoxy-1-methyl-1H-benzimidazol-7-yl)methyl)benzamide] | 64% | 
COc1cc(C(=O)NCc2c(OC)ccc3ncn(C)c23)ccc1F [Example 46, 4-fluoro-3-methoxy-N-((6-methoxy-1-methyl-1H-benzimidazol-7-yl)methyl)benzamide] | 68% | 
COc1ccc2ncn(C)c2c1CNC(=O)c1ccc(C)c(C(F)(F)F)c1 [Example 47, N-((6-methoxy-1-methyl-1H-benzimidazol-7-yl)-methyl)-4-methyl-3-(trifluoromethyl)benzamide] | 85% | 
COc1ccc(C(=O)NCc2c(OC)ccc3ncn(C)c23)s1 [Example 48, 5-methoxy-N-((6-methoxy-1-methyl-1H-benzimidazol-7-yl)methyl)thiophene-2-carboxamide] | 84% | 
COc1ccc2ncn(C)c2c1CNC(=O)c1cc(Cl)c(F)c(Cl)c1 [Example 49, 3,5-dichloro-4-fluoro-N-((6-methoxy-1-methyl-1H-benzimidazol-7-yl)methyl)benzamide] | 69% | 
COc1ccc2ncn(C)c2c1CNC(=O)c1ccc(C(F)(F)F)s1 [Example 50, N-((6-methoxy-1-methyl-1H-benzimidazol-7-yl)-methyl)-5-(trifluoro-methyl)thiophene-2-carboxainide] |  | 89
COc1ccc2ncn(C)c2c1CNC(=O)c1ccc(C(F)(F)F)c(Cl)c1 [Example 51, 3-chloro-N-((6-methoxy-1-methyl-1H-benzimidazol-7-yl)-methyl)-4-(trifluoro-methyl)benzamide] | 90% | 
COc1ccc2ncn(C)c2c1CNC(=O)c1ccc(OC(F)(F)F)c(F)c1 [Example 52, 3-fluoro-N-((6-methoxy-1-methyl-1H-benzimidazol-7-yl)methyl)-4-(trifluoro-methoxy)benzamide] | 91% | 
COc1ccc2ncn(C)c2c1CNC(=O)c1cc(Cl)c(Cl)s1 [Example 53, 4,5-dichloro-N-((6-methoxy-1-methyl-1H-benzimidazol-7-yl)-methyl)thiophene-2-carboxamide] | 91% | 

SMILES | inhibition at 10 µM | inhibitory rate (10 μM compound concentration) (10 μM final compound concentration)
COc1ccc2ncn(C)c2c1CNC(=O)c1cc(C)c(F)c(F)c1 [Example 54, 3,4-difluoro-N-((6-methoxy-1-methyl-1H-benzimidazol-7-yl)-methyl)-5-methyl-benzamide] | 85% | 
COc1ccc2ncn(C)c2c1CNC(=O)c1cc(F)c(Cl)c(Cl)c1 [Example 55, 3,4-dichloro-5-fluoro-N-((6-methoxy-1-methyl-1H-benzimidazol-7-yl)methyl)benzamide] | 90% | 
COc1ccc2ncn(C)c2c1CNC(=O)c1ccc(OC(F)(F)F)nc1 [Example 56, ((6-methoxy-1-methyl-1H-benzimidazol-7-yl)methyl)-6-(trifluoro-methoxy)nicotinamide] | 93% | 
COc1ccc2ncn(C)c2c1CNC(=O)c1cnc(OC)c(Cl)c1 [Example 57, 5-chloro-6-methoxy-N-((6-methoxy-1-methyl-1H-benzimidazol-7-yl)methyl)nicotinamide] | 91% | 
CCOc1ncc(C(=O)NCc2c(OC)ccc3ncn(C)c23)cc1Cl [Example 58, 5-chloro-6-ethoxy-N-((6-methoxy-1-methyl-1H-benzimidazol-7-yl)methyl)nicotinamide] | 93% | 
COc1ccc2ncn(C)c2c1CNC(=O)c1cnc(OC(F)F)c(F)c1 [Example 59, 6-(difluoromethoxy)-5-fluoro-N-((6-methoxy-1-methyl-1H-benzimidazol-7-yl)-methyl)nicotinamide] | 94% | 
Cc1ccc2ncn(C)c2c1CNC(=O)c1ccc(OC(F)(F)F)c(Cl)c1 [Example 60, 3-chloro-N-((1,6-dimethyl-1H-benzimidazol-7-yl)-methyl)-4-(trifluoro-methoxy)benzamide] | 94% | 
O=C(NCc1c(C2CC2)ccc2[nH]ncc12)c1ccc(C(F)(F)F)cc1 [Example 61, N-((5-cyclopropyl-1H-indazol-4-yl)methyl)-4-(trifluoromethyl)-benzamide] | 94% | 
O=C(NCc1c(C2CC2)ccc2[nH]ncc12)c1ccc(OC(F)(F)F)cc1 [Example 62, N-((5-cyclopropyl-1H-indazol-4-yl)methyl)-4-(trifluoromethoxy)-benzamide] | 94% | 
Cc1csc(C(=O)NCc2c(C3CC3)ccc3[nH]ncc23)c1 [Example 63, N-((5-cyclopropyl-1H-indazol-4-yl)methyl)-methylthiophene-2-carboxamide] | 89% | 
Cc1ccc(C(=O)NCc2c(C3CC3)ccc3[nH]ncc23)s1 [Example 64, N-((5-cyclopropyl-1H-indazol-4-yl)methyl)-methylthiophene-2-carboxamide] | 91% | 
O=C(Cc1cccs1)NCc1c(C2CC2)ccc2[nH]ncc12 [Example 65, N-((5-cyclopropyl-1H-indazol-4-yl)methyl)-2-(2-thienyl)acetamide] | 90% | 
Cc1cc(C(=O)NCc2c(C3CC3)ccc3[nH]ncc23)cs1 [Example 66, N-((5-cyclopropyl-1H-indazol-4-yl)methyl)-methylthiophene-3-carboxamide] | 91% | 
COc1ccc(C(=O)NCc2c(C3CC3)ccc3[nH]ncc23)s1 [Example 67, N-((5-cyclopropyl-1H-indazol-4-yl)methyl)-methoxythiophene-2-carboxamide] | 92% | 
COc1csc(C(=O)NCc2c(C3CC3)ccc3[nH]ncc23)c1 [Example 68, N-((5-cyclopropyl-1H-indazol-4-yl)methyl)-methoxythiophene-2-carboxamide] | 86% | 
O=C(NCc1c(C2CC2)ccc2[nH]ncc12)c1csc(Cl)c1 [Example 69, 5-chloro-N-((5-cyclopropyl-1H-indazol-4-yl)methyl)thiophene-3-carboxamide] | 93% | 
O=C(NCc1c(C2CC2)ccc2[nH]ncc12)c1cc(Cl)cs1 [Example 70, 4-chloro-N-((5-cyclopropyl-1H-indazol-4-yl)methyl)thiophene-2-carboxamide] | 92% | 
